Laboratory results from patent publication US20240092779A1, “USP1 INHIBITORS AND USES THEREOF” (Zentaur Therapeutics USA Inc., priority 2022, published 2024).

Experiments:
HCC1806 Ub-PCNA (USP1) = test: USP1 Western Blot Protocol (HCC1806 Ub-PCNA); type: cell-based; conditions: HCC1806 cells, 4 hours
How it was run: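 HCC1806 cells seeded overnight, then treated 4 h at 37 °C with a 5-point, 4-fold dilution series (0.1% DMSO). Lysates immunoblotted for Ub-PCNA with fluorescent detection; inhibition expressed as % vehicle from Ub-PCNA upregulation, IC50 by four-parameter logistic fit.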

[1] = target: T1, recombinant USP1/UAF1 enzyme complex (Homo sapiens, UniProt O94782); test: Enzyme assay: deubiquitinase fluorometric assay with ubiquitin-Rhodamine substrate; type: biochemical; conditions: USP1/UAF1, Ub-Rho110 substrate, 2 hours preincubation, 1 hour reaction
T1 construct: purchased Biortus
T1 sequence (O94782 whole entry): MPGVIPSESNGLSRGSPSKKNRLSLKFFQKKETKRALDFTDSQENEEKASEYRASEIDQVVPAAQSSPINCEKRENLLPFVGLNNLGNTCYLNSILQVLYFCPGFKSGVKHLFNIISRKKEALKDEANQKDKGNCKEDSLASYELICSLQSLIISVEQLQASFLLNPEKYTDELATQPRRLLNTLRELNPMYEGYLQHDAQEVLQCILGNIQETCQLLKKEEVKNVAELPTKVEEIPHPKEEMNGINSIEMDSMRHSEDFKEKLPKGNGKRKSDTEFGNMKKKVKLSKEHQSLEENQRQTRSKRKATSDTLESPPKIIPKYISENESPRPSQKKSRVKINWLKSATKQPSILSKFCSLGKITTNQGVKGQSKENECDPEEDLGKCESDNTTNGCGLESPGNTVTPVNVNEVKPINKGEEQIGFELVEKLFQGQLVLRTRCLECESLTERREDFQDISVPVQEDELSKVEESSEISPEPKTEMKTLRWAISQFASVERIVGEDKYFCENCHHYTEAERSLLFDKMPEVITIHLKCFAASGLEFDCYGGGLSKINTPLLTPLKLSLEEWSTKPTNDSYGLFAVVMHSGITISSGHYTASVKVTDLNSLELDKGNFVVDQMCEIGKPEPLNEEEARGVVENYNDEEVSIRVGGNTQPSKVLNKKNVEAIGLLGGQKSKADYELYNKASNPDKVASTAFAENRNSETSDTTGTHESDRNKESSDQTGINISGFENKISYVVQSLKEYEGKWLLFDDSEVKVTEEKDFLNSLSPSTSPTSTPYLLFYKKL
T1 sequence (Q8TAF3 whole entry partner): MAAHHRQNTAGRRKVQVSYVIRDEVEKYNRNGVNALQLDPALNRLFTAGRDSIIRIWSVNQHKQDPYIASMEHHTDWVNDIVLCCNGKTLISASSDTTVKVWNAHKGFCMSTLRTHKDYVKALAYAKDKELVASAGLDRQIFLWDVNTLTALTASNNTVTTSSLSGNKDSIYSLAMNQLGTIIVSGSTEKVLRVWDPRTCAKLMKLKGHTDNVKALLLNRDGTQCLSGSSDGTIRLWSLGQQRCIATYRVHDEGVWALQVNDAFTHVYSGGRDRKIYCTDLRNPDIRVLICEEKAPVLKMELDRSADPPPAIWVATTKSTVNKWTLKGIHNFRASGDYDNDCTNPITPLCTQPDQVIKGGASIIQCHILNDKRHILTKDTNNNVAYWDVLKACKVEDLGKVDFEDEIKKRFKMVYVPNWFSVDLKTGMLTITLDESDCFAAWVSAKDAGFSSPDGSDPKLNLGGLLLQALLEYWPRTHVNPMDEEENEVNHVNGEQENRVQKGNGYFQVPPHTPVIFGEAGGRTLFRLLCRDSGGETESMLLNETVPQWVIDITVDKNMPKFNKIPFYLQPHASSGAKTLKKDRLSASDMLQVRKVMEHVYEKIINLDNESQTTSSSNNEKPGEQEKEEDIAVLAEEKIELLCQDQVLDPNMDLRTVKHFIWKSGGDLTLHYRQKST
Description: Enzymatic inhibitory potency of the compounds was assessed in a deubiquitinase fluorometric assay using ubiquitin-Rhodamine (Ub-Rho110, R&D Systems) as substrate and the recombinant USP1/UAF1 enzyme complex (Biortus). Assays were performed in a final volume of 12 μL using black 384-well plates (Corning #4514) containing 50 mM HEPES (pH 7.5, BioRoYee), 0.5 mM EDTA, 1 mM dithiothreitol, 0.1 mg/mL bovine serum albumin, 50 nM Ub-Rhol10, 0.004 nM USP1/UAF1, and series diluted compounds from 10 μM to 0.5 nM (10 dilution steps). Assay-ready plates containing 40 nL of Echo-dispensed compound in DMSO were reconstituted with 2 μL of ddH2O, then 5 μL of USP1/UAF1 enzyme mixture was added and preincubated at room temperature for 2 hours. Enzymatic reaction was initiated by the addition of […] substrate mixture and assay allowed to proceed for 1 hour at room temperature before quenching with 3 μL of 150 mM citric acid. Fluorescence signal was detected via TECAN SPARK with excitation at 485 nm and emission at 535 nm. Data analysis was done using GraphPad Prism8 and IC50 values were obtained by 4-parameter logistic curve fitting.
Certain compounds were tested in the assays.

MDA-MB-436 cells = test: CTG Protocol (MDA-MB-436 GI50), antiproliferative activity; type: cell-based, human; conditions: MDA-MB-436 cells (BRCA1 mutation), 7-day incubation, CellTiter-Glo
How it was run: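 BRCA1-mutant MDA-MB-436 cells were seeded at 1000 cells/well in DMEM, left overnight, then exposed to a 9-point, 3-fold compound series for 7 days at 37 °C, 5% CO2. Viability was read by CellTiter-Glo luminescence. % inhibition was plotted against concentration to derive GI50.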

| IC50 (HCC1806 Ub-PCNA (USP1)) [nM] | IC50 [1] [nM] | GI50 (MDA-MB-436 cells) [nM] | IC50 (HCC1806 Ub-PCNA (USP1); Homo sapiens) [nM] | GI50 (MDA-MB-436 cells; Homo sapiens, 168 h) [nM] | Structure (SMILES) |
| --- | --- | --- | --- | --- | --- |
|  | 10 to 100 |  | 10 to 100 | 10 to 100 | CCc1ncnc(OC)c1-c1ncc2ccc(=O)n(Cc3ccc(-c4nc(C(F)(F)F)cn4C)cc3)c2n1 [Compound I-48, 2-(4-Ethyl-6-Methoxypyrimidin-5-Yl)-8-({4-[1-Methyl-4-(Trifluoromethyl)Imidazol-2-Yl]Phenyl}Methyl)Pyrido[2,3-d]Pyrimidin-7-One] |
|  | 100 to 1000 |  | 100 to 1000 | 100 to 1000 | COc1ncnc(C)c1-c1ncc2ccc(=O)n(Cc3ccc(-c4nc(C(F)(F)F)cn4C)cc3)c2n1 [Compound I-46, 2-(4-Methoxy-6-Methylpyrimidin-5-Yl)-8-({4-[1-Methyl-4-(Trifluoromethyl)Imidazol-2-Yl]Phenyl}Methyl)Pyrido[2,3-d]Pyrimidin-7-One] |
|  | 10 to 100 |  | 10 to 100 | 10 to 100 | CCn1cc(C(F)(F)F)nc1-c1ccc(Cn2c(=O)c(Br)cc3cnc(-c4c(OC)ncnc4C4CC4)nc32)cc1 [Compound I-38, 6-Bromo-2-(4-Cyclopropyl-6-Methoxypyrimidin-5-Yl)-8-({4-[1-Ethyl-4-(Trifluoromethyl)Imidazol-2-Yl]Phenyl}Methyl)Pyrido[2,3-d]Pyrimidin-7-One] |
|  | 10 to 100 |  | 10 to 100 | 10 to 100 | COc1ncnc(OC)c1-c1ncc2ccc(=O)n(Cc3ccc(-c4nc(C(F)(F)F)cn4C)cc3)c2n1 [Compound I-47, 2-(4,6-Dimethoxypyrimidin-5-Yl)-8-({4-[1-Methyl-4-(Trifluoromethyl)Imidazol-2-Yl]Phenyl}Methyl)Pyrido[2,3-d]Pyrimidin-7-One] |
|  | 100 to 1000 |  | 100 to 1000 | 100 to 1000 | COc1ncnc(C2CC2)c1-c1ncc2ccc(=O)n(Cc3ccc(-c4cccc(C(F)(F)F)c4)cc3)c2n1 [Compound I-42] |
|  | 10 to 100 |  |  | 10 to 100 | CCn1cc(C(F)(F)F)nc1-c1ccc(Cn2c(=O)c(C(=O)N(C)C)cc3cnc(-c4c(OC)ncnc4C4CC4)nc32)cc1 [Compound I-39, 2-(4-cyclopropyl-6-methoxypyrimidin-5-yl)-8-({4-[1-ethyl-4-(trifluoromethyl)imidazo]-2-yl]phenylmethyl)-N,N-dimethyl-7-oxopyrido[2,3-d]pyrimidine-6-carb oxamide] |
|  | 10 to 100 |  | 10 to 100 | 10 to 100 | COc1ncnc(C2CC2)c1-c1ncc2ccc(=O)n(Cc3ccc(-c4nc(C(F)(F)F)cn4C)cc3)c2c1F [Compound I-50, 7-(4-cyclopropyl-6-methoxypyrimidin-5-yl)-8-fluoro-1-({4-[1-methyl-4-(trifluoromethyl)imidazol-2-yl]phenyl}methyl)-1,6-naphthyridin-2-one] |
|  | 10 to 100 |  | 100 to 1000 | 10 to 100 | COc1ncnc(C2CC2)c1-c1ncc2c(=O)n(C)c(=O)n(Cc3ccc(-c4nc(C(F)(F)F)cn4C(C)C)cc3)c2n1 [Compound I-26, 7-(4-cyclopropyl-6-methoxypyrimidin-5-yl)-1-({4-[1-isopropyl-4-(trifluoromethyl)imidazol-2-yl]phenyl}methyl)-3-methylpyrimido[4,5-d][1,3]diazine-2,4-dione] |
|  | 10 to 100 |  | < 10 | < 10 | CCn1cc(C(F)(F)F)nc1-c1ccc(Cn2c(=O)cnc3cnc(-c4c(OC)ncnc4C4CC4)nc32)cc1 [Compound I-28] |
|  | 10 to 100 |  | 10 to 100 | 10 to 100 | CC(C)n1ncc(Cl)c1-c1ncc2ccc(=O)n(Cc3ccc(-c4nc(C(F)(F)F)cn4C)cc3)c2n1 [Compound I-44, 2-(4-Chloro-2-Isopropylpyrazol-3-Yl)-8-({4-[1-Methyl-4-(Trifluoromethyl)Imidazol-2-Yl]Phenyl}Methyl)Pyrido[2,3-d]Pyrimidin-7-One] |
|  | 100 to 1000 |  | > 1000 | > 1000 | COc1ncnc(C2CC2)c1-c1ncc2ccc(=O)n(Cc3ccc(-c4nccc(C(F)(F)F)n4)cc3)c2n1 [Compound I-34] |
|  | 10 to 100 |  |  | 10 to 100 | COc1ncnc(C2CC2)c1-c1ncc2cc(Br)c(=O)n(Cc3ccc(-c4nc(C(F)(F)F)cn4C)cc3)c2n1 [Compound I-40] |

The remaining lines, values behind:

| Structure (SMILES) | IC50 (HCC1806 Ub-PCNA (USP1)) [nM] | IC50 [1] [nM] | GI50 (MDA-MB-436 cells) [nM] | IC50 (HCC1806 Ub-PCNA (USP1); Homo sapiens) [nM] | GI50 (MDA-MB-436 cells; Homo sapiens, 168 h) [nM] |
| --- | --- | --- | --- | --- | --- |
| COc1ncnc(C2CC2)c1-c1ncc2cc(C(C)=O)c(=O)n(Cc3ccc(-c4nc(C(F)(F)F)cn4C)cc3)c2n1 [Compound 69] | 10 to 100 | 10 to 100 | 10 to 100 |  |  |
| COc1ncnc(C2CC2)c1-c1ncc2cc(C3=CCN(C)CC3)c(=O)n(Cc3ccc(-c4nc(C(F)(F)F)cn4C)cc3)c2n1 [Compound 68] | 100 to 1000 | < 10 | 10 to 100 |  |  |
| COc1ncnc(C2CC2)c1-c1ncc2cc(CN3CCNCC3)c(=O)n(Cc3ccc(-c4nc(C(F)(F)F)cn4C)cc3)c2n1 [Compound 54, 2-(4-cyclopropyl-6-methoxypyrimidin-5-yl)-8-({4-[1-methyl-4-(trifluoromethyl)imidazol-2-yl]phenyl}methyl)-6-(piperazin-1-ylmethyl)pyrido[2,3-d]pyrimidin-7-one] |  | 10 to 100 |  | 100 to 1000 | 10 to 100 |
| COc1ncnc(C2CC2)c1-c1ncc2cc(CN(C)C)c(=O)n(Cc3ccc(-c4nc(C(F)(F)F)cn4C)cc3)c2n1 [Compound 56] | 100 to 1000 | 10 to 100 | 10 to 100 |  |  |
| COc1ncnc(C2CC2)c1-c1ncc2ccc(=O)n(Cc3ccc(-c4nc(F)ccc4OC(C)C)cc3)c2n1 [Compound 76, 2-(4-cyclopropyl-6-methoxypyrimidin-5-yl)-8-{[4-(6-fluoro-3-isopropoxypyridin-2-yl)phenyl]methyl}pyrido[2,3-d]pyrimidin-7-one] |  | 10 to 100 |  | 10 to 100 | 10 to 100 |
| COc1cccnc1-c1ccc(Cn2c(=O)ccc3cnc(-c4c(OC)ncnc4C4CC4)nc32)cc1 [Compound 66, 2-(4-cyclopropyl-6-methoxypyrimidin-5-yl)-8-{[4-(3-methoxypyridin-2-yl)phenyl]methyl}pyrido[2,3-d]pyrimidin-7-one] |  | 10 to 100 |  | 10 to 100 | 10 to 100 |
| COc1ncnc(C2CC2)c1-c1ncc2ccc(=O)n(Cc3ccc(-c4nc(C(F)(F)F)cn4CC(F)F)cc3)c2n1 [Compound 61, 2-(4-cyclopropyl-6-methoxypyrimidin-5-yl)-8-({4-[1-(2,2-difluoroethyl)-4-(trifluoromethyl)imidazol-2-yl]phenyl}methyl)pyrido[2,3-d]pyrimidin-7-one] |  | 10 to 100 |  | 10 to 100 | 10 to 100 |
| COc1ncnc(C2CC2)c1-c1ncc2ccc(=O)n(Cc3ccc(-c4nc(C(F)(F)F)cn4C4COC4)cc3)c2n1 [Compound 59, 2-(4-cyclopropyl-6-methoxypyrimidin-5-yl)-8-({4-[1-(oxetan-3-yl)-4-(trifluoromethyl)imidazol-2-yl]phenyl}methyl)pyrido[2,3-d]pyrimidin-7-one] |  | 10 to 100 |  | 10 to 100 | 10 to 100 |
| COc1ncnc(C2CC2)c1-c1ncc2ccc(=O)n(Cc3ccc(-c4ncccc4F)cc3)c2n1 [Compound 65, 2-(4-cyclopropyl-6-methoxypyrimidin-5-yl)-8-{[4-(3-fluoropyridin-2-yl)phenyl]methyl}pyrido[2,3-d]pyrimidin-7-one] |  | 10 to 100 |  | > 1000 | 100 to 1000 |
| COc1ncnc(C2CC2)c1-c1ncc2cc(C(C)(C)O)c(=O)n(Cc3ccc(-c4nc(C(F)(F)F)cn4C)cc3)c2n1 [Compound 70] | 10 to 100 | 10 to 100 | 10 to 100 |  |  |
| COc1cc(Cn2c(=O)ccc3cnc(-c4c(OC)ncnc4C4CC4)nc32)cc(F)c1-c1nc(C(F)(F)F)cn1C1CC1 [Compound 53, 8-({4-[1-cyclopropyl-4-(trifluoromethyl)imidazol-2-yl]-3-fluoro-5-methoxyphenyl}methyl)-2-(4-cyclopropyl-6-methoxypyrimidin-5-yl)pyrido[2,3-d]pyrimidin-7-one] |  | 10 to 100 |  | 10 to 100 | < 10 |
| COc1ncnc(C2CC2)c1-c1ncc2cc(C(F)F)c(=O)n(Cc3ccc(-c4nc(C(F)(F)F)cn4C)cc3)c2n1 [Compound 77] | 10 to 100 | 10 to 100 | 10 to 100 |  |  |
| COc1ncnc(C2CC2)c1-c1ncc2ccc(=O)n(Cc3ccc(-c4nc(C(F)(F)F)cn4CCO)cc3)c2n1 [Compound 60, 2-(4-cyclopropyl-6-methoxypyrimidin-5-yl)-8-({4-[1-(2-hydroxyethyl)-4-(trifluoromethyl)imidazol-2-yl]phenyl}methyl)pyrido[2,3-d]pyrimidin-7-one] |  | 10 to 100 |  | 10 to 100 |  |
